Laboratory results reported in patent US20250171438A1 (Agios Pharmaceuticals, Inc., priority 2022, published 2025).

The compounds below were run against T1, human PAH with the R408W mutation (Homo sapiens, UniProt P00439, R408W) (assay: Cell Based Phenylalanine Flux Assay). Conditions: A375 cells expressing human R408W PAH; 24 hrs compound incubation; 13C-Tyrosine by LC-MS; average where tested multiple times; read-out: AC50.
T1 construct: expressed in transfected cells
T1 sequence (P00439 1-452 R408W): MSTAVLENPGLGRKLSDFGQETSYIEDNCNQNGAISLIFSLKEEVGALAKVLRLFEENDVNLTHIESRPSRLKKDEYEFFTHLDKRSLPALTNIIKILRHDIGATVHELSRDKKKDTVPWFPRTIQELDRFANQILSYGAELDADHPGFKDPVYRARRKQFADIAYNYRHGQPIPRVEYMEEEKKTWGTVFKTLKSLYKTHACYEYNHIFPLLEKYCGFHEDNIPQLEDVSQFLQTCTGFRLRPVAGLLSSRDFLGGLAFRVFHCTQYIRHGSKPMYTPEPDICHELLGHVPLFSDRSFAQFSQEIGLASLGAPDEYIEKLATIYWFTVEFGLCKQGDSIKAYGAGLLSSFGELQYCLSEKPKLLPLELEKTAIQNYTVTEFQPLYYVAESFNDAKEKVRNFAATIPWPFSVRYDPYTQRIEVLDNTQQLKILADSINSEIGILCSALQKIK
Design: scale not given here

Compound | AC50 [nM]
O=C(CCc1ncc(Cl)s1)N1CCc2[nH]cnc2[C@@H]1c1nc2ccccc2s1 [Example 1026, (R)-1-(4-(benzo[d]thiazol-2-yl)-6,7-dihydro-1H-imidazo[4,5-c]pyridin-5(4H)-yl)-3-(5-chlorothiazol-2-yl)propan-1-one] | 1000 to 5000
Cc1c(C(=O)N2CCc3[nH]cnc3[C@H]2c2nc3c(F)cccc3s2)cnn1-c1ccccn1 [Example 1933, (S)-(4-(4-fluorobenzo[d]thiazol-2-yl)-6,7-dihydro-1H-imidazo[4,5-c]pyridin-5(4H)-yl)(5-methyl-1-(pyridin-2-yl)-1H-pyrazol-4-yl)methanone] | 1000 to 5000
O=C(c1nccs1)N1CCc2[nH]cnc2[C@@H]1c1nc2cccc(F)c2s1 [Example 1102, (R)-(4-(7-fluorobenzo[d]thiazol-2-yl)-6,7-dihydro-1H-imidazo[4,5-c]pyridin-5(4H)-yl)(thiazol-2-yl)methanone] | 1000 to 5000
CC(C)n1ncnc1C(=O)N1CCc2[nH]cnc2[C@@H]1c1nc2c(F)cccc2s1 [Example 2040, (R)-(4-(4-fluorobenzo[d]thiazol-2-yl)-6,7-dihydro-1H-imidazo[4,5-c]pyridin-5(4H)-yl)(1-isopropyl-1H-1,2,4-triazol-5-yl)methanone] | 1000 to 5000
O=C(c1sc(N2CCOCC2)nc1C(F)(F)F)N1CCc2[nH]cnc2[C@@H]1c1nc2c(F)cccc2s1 [Example 1634, (R)-(4-(4-fluorobenzo[d]thiazol-2-yl)-6,7-dihydro-1H-imidazo[4,5-c]pyridin-5(4H)-yl)(2-morpholino-4-(trifluoromethyl)thiazol-5-yl)methanone] | 500 to 1000
CC(C)(O)c1nc(C(F)F)c(C(=O)N2CCc3[nH]cnc3[C@H]2c2nc3c(C(F)(F)F)cccc3s2)o1 [Example 2103, (S)-(4-(difluoromethyl)-2-(2-hydroxypropan-2-yl)oxazol-5-yl)(4-(4-(trifluoromethyl)benzo[d]thiazol-2-yl)-6,7-dihydro-1H-imidazo[4,5-c]pyridin-5(4H)-yl)methanone] | < 500
C[C@H]1CN(C(=O)c2nnc(-c3ccccn3)o2)[C@@H](c2nc3ccccc3s2)c2nc[nH]c21 [Example 1590, ((4R,7S)-4-(benzo[d]thiazol-2-yl)-7-methyl-6,7-dihydro-1H-imidazo[4,5-c]pyridin-5(4H)-yl)(5-(pyridin-2-yl)-1,3,4-oxadiazol-2-yl)methanone] | 1000 to 5000
Cn1nc(Br)nc1C(=O)N1CCc2[nH]cnc2[C@H]1c1nc2ccccc2s1 [Example 1977] | 1000 to 5000
O=C(c1ccon1)N1CCc2[nH]cnc2[C@H]1c1nc2ccc(Cl)cc2[nH]1 [Example 969, (S)-(4-(6-chloro-1H-benzo[d]imidazol-2-yl)-6,7-dihydro-1H-imidazo[4,5-c]pyridin-5(4H)-yl)(isoxazol-3-yl)methanone] | 500 to 1000
O=C(CCC1CCCC1)N1CCc2[nH]cnc2[C@@H]1c1nc2ccccc2[nH]1 [Example 912, (R)-1-(4-(1H-benzo[d]imidazol-2-yl)-6,7-dihydro-1H-imidazo[4,5-c]pyridin-5(4H)-yl)-3-cyclopentylpropan-1-one] | > 5000
CC(C)(C#N)c1nc(C(F)F)c(C(=O)N2CCc3[nH]cnc3[C@H]2c2nc3c(F)cccc3s2)o1 [Example 2027] | < 500
(S)-(4-bromothiazol-5-yl)(4-(4- fluorobenzo[d]thiazol-2-yl)-6,7-dihydro-1H)- imidazo[4,5-c]pyridin-5(4H)-yl)methanone [Example 1617] | < 500
O=C(c1ccnn1C(F)(F)F)N1CCc2[nH]cnc2[C@H]1c1nc2c(F)cccc2s1 [Example 2099, (S)-(4-(4-fluorobenzo[d]thiazol-2-yl)-6,7-dihydro-1H-imidazo[4,5-c]pyridin-5(4H)-yl)(1-(trifluoromethyl)-1H-pyrazol-5-yl)methanone] | < 500
O=C(c1cnn2ccccc12)N1CCc2[nH]cnc2[C@H]1c1nc2ccc(Br)cc2[nH]1 [Example 940, (S)-(4-(6-bromo-1H-benzo[d]imidazol-2-yl)-6,7-dihydro-1H-imidazo[4,5-c]pyridin-5(4H)-yl)(pyrazolo[1,5-a]pyridin-3-yl)methanone] | 500 to 1000
CC(C)n1ncc(C(=O)N2CCc3[nH]cnc3[C@@H]2c2nc3c(F)cccc3s2)c1Br [Example 1954, (R)-(5-bromo-1-isopropyl-1H-pyrazol-4-yl)(4-(4-fluorobenzo[d]thiazol-2-yl)-6,7-dihydro-1H-imidazo[4,5-c]pyridin-5(4H)-yl)methanone] | 1000 to 5000
O=C(c1cnc(-c2ccc(C(F)(F)F)cn2)s1)N1CCc2[nH]cnc2[C@H]1c1nc2ccccc2s1 [Example 1349] | 1000 to 5000
Cc1ccc2c(C(=O)N3CCc4[nH]cnc4[C@@H]3c3nc4ccccc4s3)cnn2c1 [Example 1088, (R)-(4-(benzo[d]thiazol-2-yl)-6,7-dihydro-1H-imidazo[4,5-c]pyridin-5(4H)-yl)(6-methylpyrazolo[1,5-a]pyridin-3-yl)methanone] | > 5000
CC(C)(C)OC(=O)N1CC(c2nnc(C(=O)N3CCc4[nH]cnc4[C@H]3c3nc4ccccc4s3)o2)C1 [Example 1893, (S)-tert-butyl 3-(5-(4-(benzo[d]thiazol-2-yl)-4,5,6,7-tetrahydro-1H-imidazo[4,5-c]pyridine-5-carbonyl)-1,3,4-oxadiazol-2-yl)azetidine-1-carboxylate] | 500 to 1000
C[C@@H]1CN(C(=O)c2ocnc2C2CC2)[C@@H](c2nc3c(F)cccc3s2)c2nc[nH]c21 [Example 1552, (4-cyclopropyloxazol-5-yl)((4R,7R)-4-(4-fluorobenzo[d]thiazol-2-yl)-7-methyl-6,7-dihydro-1H-imidazo[4,5-c]pyridin-5(4H)-yl)methanone] | 1000 to 5000
COCCc1ccc2c(C(=O)N3CCc4[nH]cnc4[C@H]3c3nc4ccccc4s3)cnn2c1 [Example 1451] | < 500
O=C(c1nc(Cl)cs1)N1CCc2[nH]cnc2[C@@H]1c1nc2ccc(Br)cc2[nH]1 [Example 950, (R)-(4-(6-bromo-1H-benzo[d]imidazol-2-yl)-6,7-dihydro-1H-imidazo[4,5-c]pyridin-5(4H)-yl)(4-chlorothiazol-2-yl)methanone] | 1000 to 5000
Cc1csc(C(=O)N2CCc3[nH]cnc3[C@@H]2c2nc3ccccc3s2)n1 [Example 1043, (R)-(4-(benzo[d]thiazol-2-yl)-6,7-dihydro-1H-imidazo[4,5-c]pyridin-5(4H)-yl)(4-methylthiazol-2-yl)methanone] | > 5000
O=C(c1nc2ccccc2o1)N1CCc2[nH]cnc2[C@@H]1c1nc2ccccc2s1 [Example 1130, (R)-benzo[d]oxazol-2-yl(4-(benzo[d]thiazol-2-yl)-1,4,6,7-tetrahydro-5H-imidazo[4,5-c]pyridin-5-yl)methanone] | 1000 to 5000
O=C(CC1CC1)N1CCc2[nH]cnc2[C@@H]1c1nc2ccccc2s1 [Example 1072, (R)-1-(4-(benzo[d]thiazol-2-yl)-6,7-dihydro-1H-imidazo[4,5-c]pyridin-5(4H)-yl)-2-cyclopropylethanone] | 1000 to 5000
Cc1cccc2sc([C@@H]3c4nc[nH]c4CCN3C(=O)c3ocnc3C#N)nc12 [Example 2019, (S)-5-(4-(4-methylbenzo[d]thiazol-2-yl)-4,5,6,7-tetrahydro-1H-imidazo[4,5-c]pyridine-5-carbonyl)oxazole-4-carbonitrile] | < 500
Cc1nc(-c2cnn(CC(F)(F)F)c2)oc1C(=O)N1CCc2[nH]cnc2[C@H]1c1nc2c(F)cccc2s1 [Example 1506, (S)-(4-(4-fluorobenzo[d]thiazol-2-yl)-6,7-dihydro-1H-imidazo[4,5-c]pyridin-5(4H)-yl)(4-methyl-2-(1-(2,2,2-trifluoroethyl)-1H-pyrazol-4-yl)oxazol-5-yl)methanone] | < 500

Same assay, conditions: A375 cells expressing human R408W PAH; 24 hrs with compound; 13C-Tyrosine by LC-MS; average where tested multiple times

Compound | AC50
O=C(c1oc(-c2ccccn2)nc1C(F)(F)F)N1CCc2[nH]cnc2[C@@H]1c1nc2ccccc2s1 (single isomer, unassigned) | E, E

Same assay, conditions: A375 cells expressing human R408W PAH; 24 hrs with compound; 13C-Tyrosine by LC-MS; average where tested multiple times; read-out: AC50

Compound | AC50 [nM]
O=C(Nc1ccc(F)cc1)N1CCc2[nH]cnc2C1c1nc2ccccc2s1 (stereo not shown) | > 5000
O=C(c1cnc[nH]1)N1CCc2[nH]cnc2C1c1nc2ccccc2s1 (stereo not shown) | > 5000
O=C(c1ncco1)N1CCc2[nH]cnc2C1c1nc2ccc(F)cc2s1 (stereo not shown) | 1000 to 5000
Cn1ncc(C(=O)N2CCc3[nH]cnc3C2c2nc3c(F)cccc3s2)c1C#N (stereo not shown) | 1000 to 5000
COC(=O)N1CC(C(=O)N2CCc3[nH]cnc3C2c2nc3c(F)cccc3s2)C1 (stereo not shown) | 1000 to 5000
O=C(c1cnn2ccc(F)cc12)N1CCc2[nH]cnc2C1c1nc2ccc(Br)cc2[nH]1 (stereo not shown) | > 5000
CC(C)(O)c1cc(C(=O)N2CCc3[nH]cnc3C2c2nc3ccccc3s2)on1 (stereo not shown) | > 5000
O=C(c1ccsn1)N1CCc2[nH]cnc2C1c1nc2ccccc2s1 (stereo not shown) | > 5000
Cc1nnc(C(=O)N2CC(C)c3[nH]cnc3C2c2nc3ccccc3s2)o1 (stereo not shown) | > 5000
Cc1nnc(CCC(=O)N2CCc3[nH]cnc3C2c2nc3c(F)cccc3s2)s1 (stereo not shown) | > 5000
O=C(c1cnn2cccc(F)c12)N1CCc2[nH]cnc2C1c1nc2ccccc2s1 (stereo not shown) | 1000 to 5000
COC(=O)N1CC(C(=O)N2CCc3[nH]cnc3C2c2nc3ccccc3s2)C1 (stereo not shown) | 1000 to 5000
O=C(c1ccn(-c2ccccn2)n1)N1CCc2[nH]cnc2C1c1nc2c(F)cccc2s1 (stereo not shown) | 1000 to 5000
